Read-outs that look alike come from different tables or passages of the source.
Columns and labels:
[1] = tested on: RSV (RSV A2 ECACC, 0709161v); assay: RSV plaque reduction assay; format: cell-based, respiratory syncytial virus; details: mean of at least two experiments unless noted (n = 1)
Experimental: Compounds w ere subjected to RSV plaque reduction assays according to the following protocol.
Hep-G2 cells (ECACC, 85011430) were passaged in flasks and seeded in 24-well plates in DMEM containing antibiotics and supplemented with 10% FBS. During inoculation and subsequent incubation, cells were cultured in DMEM containing 2% FBS. 100 plaque forming unit/well of RSV (RSV A2 ECACC, 0709161v) was mixed with eight serial dilutions of compound. Subsequently, 100 μL of the virus/compound mixtures was added to confluent Hep-G2 cell monolayers. The cells and virus/compound mixtures were incubated at 37° C. in a humidified 5% CO2 incubator for 2 h prior to removal of the inoculum and addition of 1 mL of overlay (DMEM containing 2% FBS and 0.8% CMC) containing compound dilutions. The cells and were incubated at 37° C. in a humidified 5% CO2 incubator for 2 days.
Cells were washed with PBS before adding 75/25% v/v EtOH MeOH, for 3 min. Fixative was removed and plates were washed with PBS. A pre-titrated amount of the primary antibody was added in 200 μL PBS/2% milk powder, and plates incubated for 90 min at 37° C. The plates were washed 3 times with PBS/0.05% Tween20 before addition of rabbit anti-goat horse radish peroxidase in 200 μL PBS/2% milk powder, and incubated for 1 h at 37° C. Following three wash steps with PBS/0.05% Tween20, 200 μL ready-to-use TrueBlue was added and plates were incubated at rt for 10-15 min before washing with water. After removal of water, plates were air-dried in the dark.
Plates were scanned and analysed using the Immunospot S6 Macro analyser, which is equipped with BioSpot analysis software for counting immunostained plaques (virospots). Plaque counts were used to calculate % infection relative to the mean of the plaque count in the virus control wells for RSV. […] Unless otherwise noted, plaque EC50 and cell toxicity CC50 values are a mean of at least two experiments and figures are rounded to whole units.

cell toxicity CC50 = format: cell-based; details: human; Hep-G2 cells; mean of at least two experiments; read-out: Cell Cytotoxicity CC50
[2] = human respiratory syncytial virus, HepG2, read-out: RSV A2 Plaque EC50, RSV A2 in Hep-G2 cells

Compound | EC50 [1, 2] [nM] | CC50 (cell toxicity CC50) [nM] | EC50 ([1]; read-out: RSV A2 Plaque EC50, RSV A2 in Hep-G2 cells) [nM]
O=C(N[C@H]1N=C(c2ccccc2)c2cccc(F)c2NC1=O)c1c(-c2c(F)cccc2F)nn2c1OCC(CO)C2 (mixture of isomers) [Example 129, 2-(2,6-Difluorophenyl)-N-[(3S)-9-fluoro-2-oxo-5-phenyl-1,3-dihydro-1,4-benzodiazepin-3-yl]-6-(hydroxymethyl)-6,7-dihydro-5H-pyrazolo[5,1-b][1,3]oxazine-3-carboxamide] | 37 | > 25000 | –
CN(C)CC1COc2c(C(=O)N[C@H]3N=C(c4ccccc4)c4cccc(F)c4NC3=O)c(-c3ccccc3F)nn2C1 (mixture of isomers) [Example 171, 6-[(Dimethylamino)methyl]-N-[(3S)-9-fluoro-2-oxo-5-phenyl-1,3-dihydro-1,4-benzodiazepin-3-yl]-2-(2-fluorophenyl)-6,7-dihydro-5H-pyrazolo[5,1-b][1,3]oxazine-3-carboxamide] | 59 | > 25000 | –
C[C@@H]1CCn2nc(-c3ccc(N4C[C@@H]5C[C@H]4CO5)nc3F)c(C(=O)N[C@H]3N=C(c4ccccc4)c4cccc(F)c4NC3=O)c2O1 (single isomer, unassigned) [Example 88] | 146 | > 25000 | –
C[C@@H]1CCn2nc(-c3ccc(F)nc3N3C[C@@H]4C[C@H]3CO4)c(C(=O)N[C@H]3N=C(c4ccccc4)c4cccc(F)c4NC3=O)c2O1 (single isomer, unassigned) [Example 89] | 122 | > 25000 | –
C[C@@H]1CCn2nc(-c3ccc(N4C[C@H]5C[C@@H]4CO5)nc3F)c(C(=O)N[C@H]3N=C(c4ccccc4)c4cccc(F)c4NC3=O)c2O1 (single isomer, unassigned) [Example 90] | 20 | > 25000 | –
C[C@@H]1CCn2nc(-c3ccc(N4CC5(COC5)C4)nc3F)c(C(=O)N[C@H]3N=C(c4ccccc4)c4cccc(F)c4NC3=O)c2O1 (single isomer, unassigned) [Example 91] | 239 | > 25000 | –
O=C(N[C@H]1N=C(c2ccccc2)c2cccc(F)c2NC1=O)c1c(-c2ccccc2F)nn2c1OCC(CO)C2 (single isomer, unassigned) [Example 110-1, (6R*)-N-[(3S)-9-fluoro-2-oxo-5-phenyl-1,3-dihydro-1,4-benzodiazepin-3-yl]-2-(2-fluorophenyl)-6-(hydroxymethyl)-6,7-dihydro-5H-pyrazolo[5,1-b][1,3]oxazine-3-carboxamide] | 42 | > 25000 | –
O=C(N[C@H]1N=C(c2ccccc2)c2cccc(F)c2NC1=O)c1c(-c2c(F)cccc2F)nn2c1OCC(CO)C2 (single isomer, unassigned) [Example 129-1, (6R*)-2-(2,6-Difluorophenyl)-N-[(3S)-9-fluoro-2-oxo-5-phenyl-1,3-dihydro-1,4-benzodiazepin-3-yl]-6-(hydroxymethyl)-6,7-dihydro-5H-pyrazolo[5,1-b][1,3]oxazine-3-carboxamide] | 39 | > 25000 | –
CN(C)CC1COc2c(C(=O)N[C@H]3N=C(c4ccccc4)c4cccc(F)c4NC3=O)c(-c3ccccc3F)nn2C1 (single isomer, unassigned) [Example 171-2, (6S*)-6-[(Dimethylamino)methyl]-N-[(3S)-9-fluoro-2-oxo-5-phenyl-1,3-dihydro-1,4-benzodiazepin-3-yl]-2-(2-fluorophenyl)-6,7-dihydro-5H-pyrazolo[5,1-b][1,3]oxazine-3-carboxamide] | 56 | > 25000 | –
O=C(N[C@H]1N=C(c2ccccc2)c2ccccc2NC1=O)c1c(-c2c(F)cccc2F)nn2c1OC(CO)CC2 (single isomer, unassigned) [Example 188-1, (5R*)-2-(2,6-Difluorophenyl)-5-(hydroxymethyl)-N-[(3S)-2-oxo-5-phenyl-1,3-dihydro-1,4-benzodiazepin-3-yl]-6,7-dihydro-5H-pyrazolo[5,1-b][1,3]oxazine-3-carboxamide] | 141 | > 25000 | –
O=C(N[C@H]1N=C(c2ccccc2)c2cccc(F)c2NC1=O)c1c(-c2c(F)cccc2F)nn2c1OC(CO)CC2 (single isomer, unassigned) [Example 189-1, (5R*)-2-(2,6-Difluorophenyl)-N-[(3S)-9-fluoro-2-oxo-5-phenyl-1,3-dihydro-1,4-benzodiazepin-3-yl]-5-(hydroxymethyl)-6,7-dihydro-5H-pyrazolo[5,1-b][1,3]oxazine-3-carboxamide] | 41 | > 25000 | –
O=C(N[C@H]1N=C(c2ccccc2)c2cccc(F)c2NC1=O)c1c(-c2ccccc2F)nn2c1OC(CO)CC2 (single isomer, unassigned) [Example 190-1, (5R*)-N-[(3S)-9-Fluoro-2-oxo-5-phenyl-1,3-dihydro-1,4-benzodiazepin-3-yl]-2-(2-fluorophenyl)-5-(hydroxymethyl)-6,7-dihydro-5H-pyrazolo[5,1-b][1,3]oxazine-3-carboxamide] | 98 | > 25000 | –
COCC1CCn2nc(-c3ccccc3F)c(C(=O)N[C@H]3N=C(c4ccccc4)c4cccc(F)c4NC3=O)c2O1 (single isomer, unassigned) [Example 191-1, (5R*)-N-[(3S)-9-fluoro-2-oxo-5-phenyl-1,3-dihydro-1,4-benzodiazepin-3-yl]-2-(2-fluorophenyl)-5-(methoxymethyl)-6,7-dihydro-5H-pyrazolo[5,1-b][1,3]oxazine-3-carboxamide] | – | > 25000 | 83
CC1CCn2nc(-c3ccc(N4C[C@@H]5C[C@H]4CO5)nc3)c(C(=O)NC3N=C(c4ccccc4)c4cccc(F)c4NC3=O)c2O1 (stereo in doubt) [Example 87, (5S)-5-Methyl-N-[(3R)-9-fluoro-2-oxo-5-phenyl-1,3-dihydro-1,4-benzodiazepin-3-yl]-2-[6-[(1S,4S)-2-oxa-5-azabicyclo[2.2.1]heptan-5-yl]pyridin-3-yl]-6,7-dihydro-5H-pyrazolo[5,1-b][1,3]oxazine-3-carboxamide] | 179 | > 25000 | –
CC1CCn2nc(Cc3ccccc3)c(C(=O)N[C@H]3N=C(c4ccccc4)c4cccc(F)c4NC3=O)c2O1 (stereo in doubt) [Example 109, (5S)-2-Benzyl-N-[(3S)-9-fluoro-2-oxo-5-phenyl-1,3-dihydro-1,4-benzodiazepin-3-yl]-5-methyl-6,7-dihydro-5H-pyrazolo[5,1-b][1,3]oxazine-3-carboxamide] | 114 | > 25000 | –
CC1Cn2nc(-c3ccccc3F)c(C(=O)N[C@H]3N=C(c4ccccc4)c4cccc(F)c4NC3=O)c2O1 (stereo in doubt) [Example 163, (2S)-N-[(3S)-9-fluoro-2-oxo-5-phenyl-1,3-dihydro-1,4-benzodiazepin-3-yl]-6-(2-fluorophenyl)-2-methyl-2,3-dihydropyrazolo[5,1-b][1,3]oxazole-7-carboxamide] | 76 | > 25000 | –
CN(C)CC1COc2c(C(=O)N[C@H]3N=C(c4ccccc4)c4cccc(F)c4NC3=O)c(-c3ccccc3F)nn2C1 (stereo in doubt) [Example 171-1, (6R*)-6-[(Dimethylamino)methyl]-N-[(3S)-9-fluoro-2-oxo-5-phenyl-1,3-dihydro-1,4-benzodiazepin-3-yl]-2-(2-fluorophenyl)-6,7-dihydro-5H-pyrazolo[5,1-b][1,3]oxazine-3-carboxamide] | 53 | > 25000 | –
O=C(N[C@H]1N=C(c2ccccc2)c2ccccc2NC1=O)c1c(-c2ccc(F)cc2F)nn2c1OCCC2 [Example 1, 2-(2,4-Difluorophenyl)-N-[(3S)-2-oxo-5-phenyl-1,3-dihydro-1,4-benzodiazepin-3-yl]-6,7-dihydro-5H-pyrazolo[5,1-b][1,3]oxazine-3-carboxamide] | 33 | > 25000 | –
O=C(N[C@H]1N=C(c2ccccc2)c2cccc(F)c2NC1=O)c1c(-c2ccc(F)cc2F)nn2c1OCCC2 [Example 2, 2-(2,4-Difluorophenyl)-N-[(3S)-9-fluoro-2-oxo-5-phenyl-1,3-dihydro-1,4-benzodiazepin-3-yl]-6,7-dihydro-5H-pyrazolo[5,1-b][1,3]oxazine-3-carobxamide] | 22 | > 25000 | –
CC(C)Nc1ccc(-c2nn3c(c2C(=O)N[C@H]2N=C(c4ccccc4)c4cccc(F)c4NC2=O)OCCC3)c(F)n1 [Example 4, N-[(3S)-9-Fluoro-2-oxo-5-phenyl-1,3-dihydro-1,4-benzodiazepin-3-yl]-2-[2-fluoro-6-(propan-2-ylamino)pyridin-3-yl]-6,7-dihydro-5H-pyrazolo[5,1-b][1,3]oxazine-3-carboxamide] | 29 | > 25000 | –

Reference: patent publication US12678446B2 (PFIZER INC., priority 2020, dated 2026)
